According to patent US20060160753A1, “Micronutrient formulation for cognitive & mood benefits” (Conopco Inc, d/b/a UNILEVER, priority 2004, published 2006):

Assay: Urinary PABA recovery (compliance marker), Example 1 trial
Format: in vivo, human
Conditions: 24 h urine, all time points; 120 mg PABA per bar, 2 bars daily
Experimental: Subjects were then randomized in a parallel design into two groups to receive either the nutrient test bar or placebo food. Both placebo and test bars contained 120 mg PABA (para-aminobenzoic acid), urinary excretion of which was used as a measure of compliance. Subjects were asked to continue adherence to dietary restrictions described above and to consume the provided test or control product twice daily (once with breakfast and once with evening meal) over the 10 week period.
Fasting venous blood samples were collected at the start of the 10 week intervention phase and on the last week of the intervention period. Serum and EDTA plasma samples were then collected following centrifugation at 3000 rpm for 10 mins at 4° C. and aliquots stored at −80° C. prior to analysis. Twenty-four hour urine samples were also collected at a total of 6 different time points through the study to monitor PABA excretion.
33 subjects completed the study. Compliance was judged to be good as assessed by both subjective and objective measures. Briefly, subjects completed a food diary, in which labels attached to study bars were peeled off and stuck once consumed. The maximum number of bars reported to be missed was 14 during the 12 week (and therefore 168 bar) trial. This was corroborated by the urinary PABA results, which were used as an objective measure of compliance.

- PABA recovery: > 85%
SMILES: Nc1ccc(C(=O)O)cc1 [PABA, para-aminobenzoic acid]
